pIC50: −log10 of the molar value.
The molecules below were run on PC3 cells (assay: NAMPT Cell Proliferation Assay (Cell Titer Glo; also performed in the presence of 0.3 mM nicotinamide mononucleotide)). Settings: Homo sapiens, PC-3, 120 h, 5 days incubation, cell viability by Cell Titer Glo.
Assay type: cell-based
Method in brief: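 Cell Titer Glo viability after 5-day exposure (37° C, 5% CO2); PC3, 500 cells/well, RPMI + 10% heat-inactivated FBS, overnight attachment before dosing. Dose range 10 μM to 1×10^−5 μM, 10-fold steps. IC50 = sigmoidal fit of % inhibition.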
For `C[C@H](NC(=O)c1ccc(NC(=O)C2CN(c3cccnn3)C2)cc1)C1CC1` [Example 981, N-(4-{[(1S)-1-cyclopropylethyl]carbamoyl}phenyl)-1-(pyridazin-3-yl)azetidine-3-carboxamide], the pIC50 was 5.97.
Work on `O=C(NC1CCOCC1)c1ccc(NC(=O)C2CN(c3cccnn3)C2)cc1` [Example 1002, 1-(pyridazin-3-yl)-N-[4-(tetrahydro-2H-pyran-4-ylcarbamoyl)phenyl]azetidine-3-carboxamide] yielded a pIC50 of 6.04.
Molecule `CCCCCC(=O)N1CCC(Cc2ccc(NC(=O)C3CN(c4cccnn4)C3)cc2)CC1` [Example 948, N-{4-[(1-hexanoylpiperidin-4-yl)methyl]phenyl}-1-(pyridazin-3-yl)azetidine-3-carboxamide] has a pIC50 of 8.65.
`COCC(=O)N1CCC(Cc2ccc(NC(=O)C3CN(c4cccnn4)C3)cc2)CC1` [Example 943, N-(4-{[1-(methoxyacetyl)piperidin-4-yl]methyl}phenyl)-1-(pyridazin-3-yl)azetidine-3-carboxamide] gave a pIC50 of 8.12.
For `Cn1nc(C(=O)O)cc1-c1ccc(NC(=O)C2CN(c3cccnn3)C2)cc1` [Example 911, 1-methyl-5-[4-({[1-(pyridazin-3-yl)azetidin-3-yl]carbonyl}amino)phenyl]-1H-pyrazole-3-carboxylic acid], the pIC50 was < 5.00.
`CC1(Cn2cc(-c3ccc(NC(=O)C4CN(c5cccnn5)C4)cn3)cn2)CCNCC1` [Example 926, N-(6-{1-[(4-methylpiperidin-4-yl)methyl]-1H-pyrazol-4-yl}pyridin-3-yl)-1-(pyridazin-3-yl)azetidine-3-carboxamide] gave a pIC50 of 6.22.
Work on `O=C(Nc1ccsc1)c1ccc(NC(=O)C2CN(c3cccnn3)C2)cc1` [Example 984, 1-(pyridazin-3-yl)-N-[4-(thiophen-3-ylcarbamoyl)phenyl]azetidine-3-carboxamide] yielded a pIC50 of 6.16.
`O=C(N[C@H]1CCN(c2cccnn2)C1)c1ccc(C2CCN(C(=O)c3ccccc3F)CC2)o1` [Example 907, 5-[1-(2-fluorobenzoyl)piperidin-4-yl]-N-[(3S)-1-(pyridazin-3-yl)pyrrolidin-3-yl]furan-2-carboxamide] showed a pIC50 of 5.17.
Work on `O=C(Nc1ccc(CC2CCN(C(=O)C3CCCCC3)CC2)cc1)C1CN(c2cccnn2)C1` [Example 965, N-(4-{[1-(cyclohexylcarbonyl)piperidin-4-yl]methyl}phenyl)-1-(pyridazin-3-yl)azetidine-3-carboxamide] yielded a pIC50 of 8.59.
`CC1CC1C(=O)N1CCC(Cc2ccc(NC(=O)C3CN(c4cccnn4)C3)cc2)CC1` (stereo not shown) [Example 931, N-[4-({1-[(2-methylcyclopropyl)carbonyl]piperidin-4-yl}methyl)phenyl]-1-(pyridazin-3-yl)azetidine-3-carboxamide] was tested, and the pIC50 was 8.50.
`O=C(Nc1ccc(C2CCN(C(=O)c3ccccc3F)CC2)nc1)C1CN(c2cccnn2)C1` [Example 914, N-{6-[1-(2-fluorobenzoyl)piperidin-4-yl]pyridin-3-yl}-1-(pyridazin-3-yl)azetidine-3-carboxamide] gave a pIC50 of 8.57.
In the case of `O=C(N[C@@H]1CCOC1)c1ccc(NC(=O)C2CN(c3cccnn3)C2)cc1` [Example 1022, 1-(pyridazin-3-yl)-N-{4-[(3R)-tetrahydrofuran-3-ylcarbamoyl]phenyl}azetidine-3-carboxamide], the pIC50 was 5.09.
For `CC1(Cn2cc(-c3ccc(NC(=O)C4CN(c5cccnc5)C4)cc3)cn2)CCNCC1` [Example 877, N-(4-{1-[(4-methylpiperidin-4-yl)methyl]-1H-pyrazol-4-yl}phenyl)-1-(pyridin-3-yl)azetidine-3-carboxamide], the pIC50 was 7.53.
`CCCCNC(=O)c1ccc(NC(=O)C2CN(c3cccnn3)C2)cc1` [Example 979, N-[4-(butylcarbamoyl)phenyl]-1-(pyridazin-3-yl)azetidine-3-carboxamide] showed a pIC50 of 7.14.
`CCOC(=O)c1cc(-c2ccc(NC(=O)C3CN(c4cccnn4)C3)cc2)n(-c2ccccc2)n1` [Example 913, ethyl 1-phenyl-5-[4-({[1-(pyridazin-3-yl)azetidin-3-yl]carbonyl}amino)phenyl]-1H-pyrazole-3-carboxylate] showed a pIC50 of 7.18.
In the case of `CC1(NC(=O)c2ccc(NC(=O)C3CN(c4cccnn4)C3)cc2)CCC1` [Example 1011, N-{4-[(1-methylcyclobutyl)carbamoyl]phenyl}-1-(pyridazin-3-yl)azetidine-3-carboxamide], the pIC50 was 6.95.
In the case of `Cn1cccc1C(=O)N1CCC(Cc2ccc(NC(=O)C3CN(c4cccnn4)C3)cc2)CC1` [Example 949, N-[4-({1-[(1-methyl-1H-pyrrol-2-yl)carbonyl]piperidin-4-yl}methyl)phenyl]-1-(pyridazin-3-yl)azetidine-3-carboxamide], the pIC50 was 8.23.
With `O=C(Nc1ccc(-c2cc(C(F)(F)F)nn2-c2ccccc2)cc1)C1CN(c2cccnn2)C1` [Example 923, N-{4-[1-phenyl-3-(trifluoromethyl)-1H-pyrazol-5-yl]phenyl}-1-(pyridazin-3-yl)azetidine-3-carboxamide] the pIC50 was 7.16.
For `CC[C@H](C)C(=O)N1CCC(Cc2ccc(NC(=O)C3CN(c4cccnn4)C3)cc2)CC1` [Example 903, N-[4-({1-[(2S)-2-methylbutanoyl]piperidin-4-yl}methyl)phenyl]-1-(pyridazin-3-yl)azetidine-3-carboxamide], the pIC50 was 9.21.
For `CC1(C)CC(NC(=O)c2ccc(NC(=O)C3CN(c4cccnn4)C3)cc2)CCO1` (stereo not shown) [Example 980, N-{4-[(2,2-dimethyltetrahydro-2H-pyran-4-yl)carbamoyl]phenyl}-1-(pyridazin-3-yl)azetidine-3-carboxamide], the pIC50 was 7.09.
With `Cc1ccc(N2CC(C(=O)Nc3ccc(-c4cnn(CC(C)(C)C)c4)cc3)C2)nn1` [Example 878, N-{4-[1-(2,2-dimethylpropyl)-1H-pyrazol-4-yl]phenyl}-1-(6-methylpyridazin-3-yl)azetidine-3-carboxamide] the pIC50 was 7.15.
`O=C(NC1(C2CC2)CC1)c1ccc(NC(=O)C2CN(c3cccnn3)C2)cc1` [Example 983, N-{4-[1,1′-bi(cyclopropyl)-1-ylcarbamoyl]phenyl}-1-(pyridazin-3-yl)azetidine-3-carboxamide] gave a pIC50 of 6.22.
`O=C(N[C@H]1CCN(c2cccnn2)C1)c1ccc(C2CCN(C(=O)CC3CC3)CC2)s1` [Example 1018, 5-[1-(cyclopropylacetyl)piperidin-4-yl]-N-[(3S)-1-(pyridazin-3-yl)pyrrolidin-3-yl]thiophene-2-carboxamide] gave a pIC50 of 6.15.
In the case of `Cc1ccc(N2CC[C@H](C(=O)Nc3ccc(C4CCN(C(=O)c5ccccc5F)CC4)cc3)C2)nn1` [Example 892, (3S)—N-{4-[1-(2-fluorobenzoyl)piperidin-4-yl]phenyl}-1-(6-methylpyridazin-3-yl)pyrrolidine-3-carboxamide], the pIC50 was 6.84.
Molecule `O=C(NC1CCCC1)c1ccc(NC(=O)C2CN(c3cccnn3)C2)cc1` [Example 1005, N-[4-(cyclopentylcarbamoyl)phenyl]-1-(pyridazin-3-yl)azetidine-3-carboxamide] has a pIC50 of 6.23.
For `Cc1ccnnc1N1CC(C(=O)Nc2ccc(C3CCN(C(=O)c4ccccc4)CC3)cc2)C1` [Example 906, N-[4-(1-benzoylpiperidin-4-yl)phenyl]-1-(4-methylpyridazin-3-yl)azetidine-3-carboxamide], the pIC50 was 9.06.
`O=C(Nc1ccc(CC2CCN(C(=O)c3ccccc3)CC2)cc1)C1CN(c2cccnn2)C1` [Example 895, N-{4[(1-benzoylpiperidin-4-yl)methyl]phenyl}-1-(pyridazin-3-yl)azetidine-3-carboxamide] showed a pIC50 of 8.67.
Work on `O=C(Nc1ccc(F)cc1)c1ccc(NC(=O)C2CN(c3cccnn3)C2)cc1` [Example 1009, N-{4-[(4-fluorophenyl)carbamoyl]phenyl}-1-(pyridazin-3-yl)azetidine-3-carboxamide] yielded a pIC50 of 7.09.
Work on `O=C(NCc1ccccc1)c1ccc(NC(=O)C2CN(c3cccnn3)C2)cc1` [Example 1006, N-[4-(benzylcarbamoyl)phenyl]-1-(pyridazin-3-yl)azetidine-3-carboxamide] yielded a pIC50 of 8.27.
`CC1(NC(=O)c2ccc(NC(=O)C3CN(c4cccnn4)C3)cc2)CC1` [Example 993, N-{4-[(1-methylcyclopropyl)carbamoyl]phenyl}-1-(pyridazin-3-yl)azetidine-3-carboxamide] gave a pIC50 of 6.09.
In the case of `CC(C)CCC(=O)N1CCC(Cc2ccc(NC(=O)C3CN(c4cccnn4)C3)cc2)CC1` [Example 935, N-(4-{[1-(4-methylpentanoyl)piperidin-4-yl]methyl}phenyl)-1-(pyridazin-3-yl)azetidine-3-carboxamide], the pIC50 was 8.70.
`O=C(Nc1ccc(C2CCN(C(=O)CC3CC3)CC2)c(F)c1)C1CN(c2cccnn2)C1` [Example 888, N-{4-[1-(cyclopropylacetyl)piperidin-4-yl]-3-fluorophenyl}-1-(pyridazin-3-yl)azetidine-3-carboxamide] was tested, and the pIC50 was 8.01.
For `O=C(Nc1ccc(CC2CCN(C(=O)C3CCC3)CC2)cc1)C1CN(c2cccnn2)C1` [Example 960, N-(4-{[1-(cyclobutylcarbonyl)piperidin-4-yl]methyl}phenyl)-1-(pyridazin-3-yl)azetidine-3-carboxamide], the pIC50 was 8.54.
For `O=C(Nc1ccc(C2CCN(C(=O)c3ccccc3F)CC2)c(F)c1)C1CN(c2cccnn2)C1` [Example 885, N-{3-fluoro-4-[1-(2-fluorobenzoyl)piperidin-4-yl]phenyl}-1-(pyridazin-3-yl)azetidine-3-carboxamide], the pIC50 was 8.79.
Molecule `O=C(Nc1ccc(CC2CCN(C(=O)c3ccsc3)CC2)cc1)C1CN(c2cccnn2)C1` [Example 942, 1-(pyridazin-3-yl)-N-(4-{[1-(thiophen-3-ylcarbonyl)piperidin-4-yl]methyl}phenyl)azetidine-3-carboxamide] has a pIC50 of 8.56.
In the case of `CC(C)(C)Cn1cc(-c2ccc(NC(=O)C3CN(c4ccc(Cl)nn4)C3)cc2)cn1` [Example 875, 1-(6-chloropyridazin-3-yl)-N-{4-[1-(2,2-dimethylpropyl)-1H-pyrazol-4-yl]phenyl}azetidine-3-carboxamide], the pIC50 was < 5.00.
For `COC(C)(C)CNC(=O)c1ccc(NC(=O)C2CN(c3cccnn3)C2)cc1` [Example 994, N-{4-[(2-methoxy-2-methylpropyl)carbamoyl]phenyl}-1-(pyridazin-3-yl)azetidine-3-carboxamide], the pIC50 was 7.23.

From patent US8975398B2, “NAMPT inhibitors” (AbbVie Inc., priority 2012, dated 2015)
